System: osteoclasts
Assay: Osteoclast formation in co-culture of myelocytes and osteoblasts (TRAP staining)
Assay type: cell-based
Settings: 2 U/ml
Procedure: Myelocytes and osteoblasts were co-cultured in vitro and the numbers of osteoclasts formed were measured. Myelocytes will differentiate into osteoclasts expressing tartrate-resisted acidic phosphatase (TRAP) when vitamin D is present in the coculture. These osteoclasts could be identified by staining for TRAP. Therefore the development of osteoclasts could be assayed by co-culturing myelocytes with osteoblasts.
Osteoblasts and, myelocytes were co-cultured in 24-well plate. PTH (100 ng/ml), 1α, 25 (OH)2VD3 (10^−8 M), water extraction of the mycelium of C. Sinensis 3 mg/ml, 300 μg/ml, 30 μg/ml, 3 μg/ml or Elcatonin 2 U/ml were added. Samples were numbered No. 1˜No. 6. Each sample was cultured in 4 wells. Culture was maintained for 6 days with medium changed every two days.
After coculturing, TRAP-positive cells were stained to dark red color. The numbers of TRAP-positive osteoclasts that have more than 3 nucleuses were counted. The average numbers of osteoclasts from 4 samples were the number of osteoclasts.
The numbers of osteoclasts in the 1α, 25 (OH)2D3 sample was considered 100%. The percentage of osteoclasts formed of experimental group was calculated using formula 1. Student's t-test was used to examine the significance.
The formation of osteoclasts (%) osteoclast cell numbers/osteoclast cell numbers in medium with 1α,25(OH)2D3×100 (formula 1)

With Elcatonin the “Formation of osteoclasts (%)” value (1α,25(OH)2D3 sample = 100%) was 13.8% and the “Average Osteoclast cell numbers (n = 4)” value (6 days co-culture) was 113.0.
